Assay results from patent US4684664A, “Derivatives of β-(4-isocyano-1,2,3,4-diepoxycyclopentyl) acrylic acid” (Kureha Kagaku Kogyo Kabushiki Kaisha, priority 1984, dated 1987).
≈ marks a conversion by molar mass, not a printed value.

Experiments:
Format in all cases: cell-based
[1] = tested on: Micrococcus luteus ATCC 9341; test: Antibacterial activity, agar-dilution MIC, organism No. 25; details: Micrococcus luteus, ATCC9341; Organism No. 25, bouillon-agar; read-out: Minimum Inhibitory Concentration
How it was run: (§1)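 Specimen is incorporated into bouillon-agar medium at graded levels and the organisms are tested on these plates. The lowest level preventing growth is taken as the MIC (μg/ml of medium).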

[2] = tested on: Salmonella typhimurium IID 971; test: Antibacterial activity, agar-dilution MIC, organism No. 8; details: Salmonella enterica; Organism No. 8, bouillon-agar; read-out: Minimum Inhibitory Concentration
How it was run: as §1

[3] = tested on: Pseudomonas aeruginosa NCTC 10490; test: Antibacterial activity, agar-dilution MIC, organism No. 16; details: Pseudomonas aeruginosa, NCTC10490; Organism No. 16, bouillon-agar; read-out: Minimum Inhibitory Concentration
How it was run: as §1

[4] = tested on: Streptococcus pyogenes Cook; test: Antibacterial activity, agar-dilution MIC, organism No. 4; details: Streptococcus pyogenes; Organism No. 4, bouillon-agar; read-out: Minimum Inhibitory Concentration
How it was run: as §1

Enterobacter cloacae 963 = test: Antibacterial activity, agar-dilution MIC, organism No. 24; details: Enterobacter cloacae, 963; Organism No. 24, bouillon-agar; read-out: Minimum Inhibitory Concentration
How it was run: as §1

[5] = tested on: Proteus mirabilis IFO 3849; test: Antibacterial activity, agar-dilution MIC, organism No. 19; details: Proteus mirabilis, IFO3849; Organism No. 19, bouillon-agar; read-out: Minimum Inhibitory Concentration
How it was run: as §1

[6] = tested on: Pseudomonas aeruginosa PAO 1; test: Antibacterial activity, agar-dilution MIC, organism No. 17; details: Pseudomonas aeruginosa, PAO1; Organism No. 17, bouillon-agar; read-out: Minimum Inhibitory Concentration
How it was run: as §1

[7] = tested on: Streptococcus faecium IFO 3826; test: Antibacterial activity, agar-dilution MIC, organism No. 27; details: Enterococcus faecium, IFO3826; Organism No. 27, bouillon-agar; read-out: Minimum Inhibitory Concentration
How it was run: as §1

[8] = tested on: Salmonella paratyphi-A 1015; test: Antibacterial activity, agar-dilution MIC, organism No. 10; details: Salmonella enterica, PARATYPHI, read-out: Minimum Inhibitory Concentration
How it was run: as §1

[9] = tested on: Klebsiella pneumoniae PCI-602; test: Antibacterial activity, agar-dilution MIC, organism No. 7; details: Klebsiella pneumoniae, PCI602; Organism No. 7, bouillon-agar; read-out: Minimum Inhibitory Concentration
How it was run: as §1

[10] = tested on: Pseudomonas aeruginosa IFO 3445; test: Antibacterial activity, agar-dilution MIC, organism No. 15; details: Pseudomonas aeruginosa, IFO3445; Organism No. 15, bouillon-agar; read-out: Minimum Inhibitory Concentration
How it was run: as §1

[11] = tested on: Aspergillus niger IFO 6342; test: Antifungal activity, agar-dilution MIC, organism No. 30; details: Aspergillus niger, IFO6342; Organism No. 30, bouillon-agar; read-out: Minimum Inhibitory Concentration
How it was run: as §1

[12] = tested on: Proteus morganii IFO 3848; test: Antibacterial activity, agar-dilution MIC, organism No. 18; details: Morganella morganii, IFO3848; Organism No. 18, bouillon-agar; read-out: Minimum Inhibitory Concentration
How it was run: as §1

[13] = tested on: Serratia marcescens IAM 1184; test: Antibacterial activity, agar-dilution MIC, organism No. 13; details: Serratia marcescens, IAM1184; Organism No. 13, bouillon-agar; read-out: Minimum Inhibitory Concentration
How it was run: as §1

[14] = tested on: Enterobacter aerogenes ATCC 13048; test: Antibacterial activity, agar-dilution MIC, organism No. 23; details: Klebsiella aerogenes, ATCC13048; Organism No. 23, bouillon-agar; read-out: Minimum Inhibitory Concentration
How it was run: as §1

Proteus vulgaris OX-19 = test: Antibacterial activity, agar-dilution MIC, organism No. 20; details: Proteus vulgaris, OX19; Organism No. 20, bouillon-agar; read-out: Minimum Inhibitory Concentration
How it was run: as §1

[15] = tested on: Salmonella enteritidis G 14; test: Antibacterial activity, agar-dilution MIC, organism No. 12; details: Salmonella enterica, ENTERITIDIS; Organism No. 12, bouillon-agar; read-out: Minimum Inhibitory Concentration
How it was run: as §1

[16] = tested on: Staphylococcus aureus Terajima; test: Antibacterial activity, agar-dilution MIC, organism No. 2; details: Staphylococcus aureus; Organism No. 2, bouillon-agar; read-out: Minimum Inhibitory Concentration
How it was run: as §1

[17] = tested on: Staphylococcus aureus MS 353; test: Antibacterial activity, agar-dilution MIC, organism No. 3; details: Staphylococcus aureus, MS353; Organism No. 3, bouillon-agar; read-out: Minimum Inhibitory Concentration
How it was run: as §1

Proteus vulgaris HX-19 = test: Antibacterial activity, agar-dilution MIC, organism No. 21; details: Proteus vulgaris, HX19; Organism No. 21, bouillon-agar; read-out: Minimum Inhibitory Concentration
How it was run: as §1

[18] = tested on: Mycoplasma pneumoniae IID817; test: Antimycoplasmal activity, MIC by phenol red colour change, organism No. 28; details: Mycoplasma, IID817; Organism No. 28, PPLO broth + 1% glucose, 37° C.; read-out: Minimum Inhibitory Concentration (MIC)
Experimental: Mycoplasma pneumoniae IID817 was used as the test microorganism in a culture medium prepared by adding 1% of glucose to "PPLO broth (manufactured by Difco Co.) liquid culture medium" at 37° C. with phenol red as an indicator, thereby culturing the test microorganism.

[19] = tested on: Escherichia coli NIHJ-JC-2; test: Antibacterial activity, agar-dilution MIC, organism No. 5; details: Escherichia coli, NIHJJC2; Organism No. 5, bouillon-agar; read-out: Minimum Inhibitory Concentration
How it was run: as §1

[20] = tested on: Escherichia coli K12 C600 IAM 1264; test: Antibacterial activity, agar-dilution MIC, organism No. 6; details: Escherichia coli, IAM1264; Organism No. 6, bouillon-agar; read-out: Minimum Inhibitory Concentration
How it was run: as §1

[21] = tested on: Staphylococcus aureus FDA 209PJc-1; test: Antibacterial activity, agar-dilution MIC, organism No. 1; details: Staphylococcus aureus, FDA209PJC1; Organism No. 1, bouillon-agar; read-out: Minimum Inhibitory Concentration
How it was run: as §1

[22] = tested on: Bacillus subtilis ATCC 6633; test: Antibacterial activity, agar-dilution MIC, organism No. 14; details: Bacillus subtilis, ATCC6633; Organism No. 14, bouillon-agar; read-out: Minimum Inhibitory Concentration
How it was run: as §1

[23] = tested on: Proteus rettgeri IFO 3850; test: Antibacterial activity, agar-dilution MIC, organism No. 22; details: Providencia rettgeri, IFO3850; Organism No. 22, bouillon-agar; read-out: Minimum Inhibitory Concentration
How it was run: as §1

Salmonella typhi 901 = test: Antibacterial activity, agar-dilution MIC, organism No. 9; details: Salmonella enterica, TYPHI, read-out: Minimum Inhibitory Concentration
How it was run: as §1

[24] = tested on: Streptococcus pyogenes IFO 3340; test: Antibacterial activity, agar-dilution MIC, organism No. 26; details: Streptococcus pyogenes, IFO3340; Organism No. 26, bouillon-agar; read-out: Minimum Inhibitory Concentration
How it was run: as §1

[25] = tested on: Candida albicans IAM 4905; test: Antifungal activity, agar-dilution MIC, organism No. 29; details: Candida albicans, IAM4905; Organism No. 29, bouillon-agar; read-out: Minimum Inhibitory Concentration
How it was run: as §1

[26] = tested on: Salmonella shottmuelleri 8006; test: Antibacterial activity, agar-dilution MIC, organism No. 11; details: Salmonella, 8006; Organism No. 11, bouillon-agar; read-out: Minimum Inhibitory Concentration
How it was run: as §1

Row | Structure (SMILES) | MIC [1] | MIC [2] | MIC [3] | MIC [4] | MIC (Enterobacter cloacae 963) | MIC [5] | MIC [6] | MIC [7] | MIC [8] | MIC [9] | MIC [10] | MIC [11] | MIC [12] | MIC [13] | MIC [14] | MIC (Proteus vulgaris OX-19) | MIC [15] | MIC [16] | MIC [17] | MIC (Proteus vulgaris HX-19) | other results
1 | [C-]#[N+]C12CC3(/C=C/C(=O)Nc4ccc(C(=O)c5ccccc5)cc4)OC3C1O2 (stereo not drawn) [compound 79] | > 200 µg/mL | > 200 µg/mL | > 200 µg/mL | 3.13 µg/mL (≈ 8.41 µM) | > 200 µg/mL | > 200 µg/mL | > 200 µg/mL | 0.78 µg/mL (≈ 2.09 µM) | 3.13 µg/mL (≈ 8.41 µM) | 3.13 µg/mL (≈ 8.41 µM) | > 200 µg/mL | 3.13 µg/mL (≈ 8.41 µM) | 6.25 µg/mL (≈ 16.8 µM) | > 200 µg/mL | > 200 µg/mL | 1.56 µg/mL (≈ 4.19 µM) | > 200 µg/mL | 0.78 µg/mL (≈ 2.09 µM) | 0.39 µg/mL (≈ 1.05 µM) | 1.56 µg/mL (≈ 4.19 µM) | MIC [18]: < 0.2 µg/mL; MIC [19]: > 200 µg/mL; MIC [20]: > 200 µg/mL; MIC [21]: 0.39 µg/mL (≈ 1.05 µM); MIC [22]: 1.56 µg/mL (≈ 4.19 µM); MIC [23]: > 200 µg/mL; MIC (Salmonella typhi 901): 200 µg/mL (≈ 537 µM); MIC [24]: 0.78 µg/mL (≈ 2.09 µM); MIC [25]: 0.39 µg/mL (≈ 1.05 µM); MIC [26]: 6.25 µg/mL (≈ 16.8 µM)
2 | [C-]#[N+]C12CC3(/C=C/C(=O)Nc4ccc(C(C)=O)cc4)OC3C1O2 (stereo not drawn) [compound 80] | > 200 µg/mL | 100 µg/mL (≈ 322 µM) | > 200 µg/mL | 6.25 µg/mL (≈ 20.1 µM) | > 200 µg/mL | > 200 µg/mL | > 200 µg/mL | 1.56 µg/mL (≈ 5.03 µM) | 3.13 µg/mL (≈ 10.1 µM) | 1.56 µg/mL (≈ 5.03 µM) | > 200 µg/mL | 3.13 µg/mL (≈ 10.1 µM) | 6.25 µg/mL (≈ 20.1 µM) | > 200 µg/mL | > 200 µg/mL | 1.56 µg/mL (≈ 5.03 µM) | 12.5 µg/mL (≈ 40.3 µM) | 1.56 µg/mL (≈ 5.03 µM) | 0.78 µg/mL (≈ 2.51 µM) | 1.56 µg/mL (≈ 5.03 µM) | MIC [18]: < 0.2 µg/mL; MIC [19]: > 200 µg/mL; MIC [20]: > 200 µg/mL; MIC [21]: 0.39 µg/mL (≈ 1.26 µM); MIC [22]: 6.25 µg/mL (≈ 20.1 µM); MIC [23]: > 200 µg/mL; MIC (Salmonella typhi 901): 12.5 µg/mL (≈ 40.3 µM); MIC [24]: 3.13 µg/mL (≈ 10.1 µM); MIC [25]: 0.39 µg/mL (≈ 1.26 µM); MIC [26]: 3.13 µg/mL (≈ 10.1 µM)
3 | [C-]#[N+]C12CC3(/C=C/C(=O)NOC)OC3C1O2 (stereo not drawn) [compound 81] | 100 µg/mL (≈ 450 µM) | 12.5 µg/mL (≈ 56.3 µM) | 200 µg/mL (≈ 900 µM) | 25 µg/mL (≈ 113 µM) | > 200 µg/mL | 100 µg/mL (≈ 450 µM) | > 200 µg/mL | 12.5 µg/mL (≈ 56.3 µM) | 6.25 µg/mL (≈ 28.1 µM) | 200 µg/mL (≈ 900 µM) | 200 µg/mL (≈ 900 µM) | 6.25 µg/mL (≈ 28.1 µM) | 25 µg/mL (≈ 113 µM) | 200 µg/mL (≈ 900 µM) | > 200 µg/mL | 50 µg/mL (≈ 225 µM) | 6.25 µg/mL (≈ 28.1 µM) | 25 µg/mL (≈ 113 µM) | 12.5 µg/mL (≈ 56.3 µM) | 6.25 µg/mL (≈ 28.1 µM) | MIC [18]: < 0.2 µg/mL; MIC [19]: 12.5 µg/mL (≈ 56.3 µM); MIC [20]: 12.5 µg/mL (≈ 56.3 µM); MIC [21]: 25 µg/mL (≈ 113 µM); MIC [22]: 50 µg/mL (≈ 225 µM); MIC [23]: 100 µg/mL (≈ 450 µM); MIC (Salmonella typhi 901): 6.25 µg/mL (≈ 28.1 µM); MIC [24]: 6.25 µg/mL (≈ 28.1 µM); MIC [25]: 12.5 µg/mL (≈ 56.3 µM); MIC [26]: 12.5 µg/mL (≈ 56.3 µM)
